Experimental data published in patent US10358467B2, “Therapeutic targets for cancer progression” (The Regents of the University of California, priority 2015, dated 2019).

How the values were obtained:
[1] = system: Ras-transformed NIH3T3 cells; test: Transformation assay, colony formation in soft agar; assay type: cell-based; conditions: NIH3T3 co-expressing HA-KRas G12V
Protocol: Neoplastic transformationin Ras-transformed NIH3T3 fibroblasts was analyzed using standard assays of colony formation in soft agar as described previously (Clark et al, 1995). Low passage NIH3T3 cells (˜5000) stably co-transfected with appropriate myc-DAPLE construct (2 μg cDNA) and HA-Ras G12V (1 μg cDNA) were analyzed for their ability to form tumor foci in soft agar plates. Plates were incubated in 5% CO2 at 37° C. for ˜2 weeks in growth media supplemented with 2% FBS. They were finally incubated with 0.1% (wt/vol)dimethylthiazol-2-yl)2 2,5-diphenyl tetrazolium bromide (MTT; Sigma) in PBS for 1 h to visualize colonies. The remaining NIH3T3 cells not used for this assay were lysed and analyzed for myc-DAPLE and Ha-Ras G12V expression by immunoblotting.

DLD1 cells [2] = test: Anchorage-independent tumor growth assay; assay type: cell-based, human; conditions: soft agar
Protocol: Anchorage-independent growth of DLD1 cells was analyzed in agar as described previously (Wallert M A, 2007). Briefly, petri plates (60 mm) were pre-layered with 3 ml 1% Bacto agar (Life Technologies) in DMEM containing 10% FBS. Approximately ˜5000 DLD1 cells stably expressing various DAPLE constructs were then plated on top in 3 ml of 0.3% agar-DMEM with 10% FBS. All assays were carried out using three replicate plates at a seeding density of ˜5000 cells/plate. Following overnight incubation in 5% CO2 incubator, 1 ml DMEM supplemented with 2% FBS was added to maintain hydration. After 2 wks of growth, colonies were stained with 0.005% crystal violet/methanol for 1 h, and subsequently photographed by light microscopy. The number of colonies in ˜15-20 randomly-selected fields were counted under 10× magnification. The remaining DLD1 cells were lysed and analyzed by immunoblotting to confirm DAPLE construct expression. Each experiment was analyzed in triplicate.

DLD1 cells [3] = test: Anchorage-dependent tumor growth assay; assay type: cell-based, human; conditions: for inhibition of anchorage-dependent tumor growth: DLD1 cells, plastic plates
Protocol: Anchorage-dependent growth was monitored on solid (plastic) surface as described previously (Franken et al, 2006). Briefly, anchorage-dependent growth was monitored on solid (plastic) surface. Approximately ˜1000 DLD1 cells stably expressing various DAPLE constructs were plated in 6-well plates and incubated in 5% CO2 at 37° C. for ˜2 weeks in 0.2% FBS growth media. Colonies were then stained with 0.005% crystal violet for 1 h. The remaining DLD1 cells were lysed and analyzed by immunoblotting to confirm DAPLE construct expression. Each experiment was analyzed in triplicate.

[4] = system: β-Catenin/TCF/LEF pathway in DLD1 7TGP cells; test: β-Catenin reporter assay (7TGP); assay type: cell-based, human; conditions: stable expression, starved and stimulated with Wnt5a, versus vector control
Protocol: These assays were carried out using the well-established reporter 7×Tcf-eGFP (7TGP) (Fuerer & Nusse, 2010). Stable cells lines expressing this reporter were generated by lentiviral transduction and subsequent selection using standard procedures. Lentiviral infection and selection were performed according to standard procedures. Briefly, 10 cm plates DLD1 cells at 70% confluency were incubated with media containing 8 μg/mL polybrene and 10 μl of lentivirus for 6 h. After 24 hours post infection, selection of puromycin-resistant clones was initiated by adding the antibiotic at 2 μg/ml final concentration. The resultant DLD1-7TGP stable cells were subsequently transfected with various myc-DAPLE constructs and selected for G418 resistance as described earlier in methods. The DLD1-7TGP cells stably expressing myc-DAPLE were incubated overnight at 0.2% FBS, analyzed by fluorescence microscopy, and photographed prior to lysis. Whole cell lysates samples were then boiled in Laemmli's sample buffer and GFP protein expression was monitored by immunoblotting.

NIH3T3 cells = test: 3D spheroid matrigel invasion assay; assay type: cell-based; conditions: in response to Wnt5a
Protocol: NIH3T3 cell invasion assay in 3D culture was performed according to the manufacturer's protocol (Trevigen, Cultrex 3D Spheroid BME Cell Invasion Assay, catalog #3500-096-K). Briefly, non-invasive NIH3T3 cells (˜3000 cells) transfected with empty vector (control) or myc-DAPLEconstructs were incubated first in the Spheroid Formation extracellular matrix (ECM) containing 0.2% FBS for 3 days. Invasion matrix was then added and layered on top with media containing FBS. […] Photographs were analyzed and pseudocolored by Image J to reflect cell density.

[5] = molecular target: T1, GST-Gαi3·Gβγ preformed complexes (Rattus norvegicus, UniProt P08753); test: Gβγ displacement assay; assay type: binding; conditions: 0.05-1 μM WT or 1 μM F1675A
T1 construct: made in house; host or cells: E. coli BL21 (DE3) for GST-Gαi3; Gβγ endogenous from HEK293T lysate
Protocol: This assay was performed as described previously (Garcia-Marcos et al, 2009). Briefly, GST alone or GST-Gαi3 proteins immobilized on glutathione-agarose beads were incubated overnight at 4° C. with HEK293T cell lysates in binding buffer [50 mM Tris-HCl, pH 7.4, 100 mM NaCl, 0.4% (v:v) NP-40, 10 mM MgCl2, 5 mM EDTA, 2 mM DTT, protease inhibitor cocktail supplemented with 30 μM GDP]. Unbound Gβγ-subunits were washed twice with the same buffer and proteins bound to the glutathione-agarose beads divided into equal aliquots containing ˜5 μg (˜0.4 μM) GST-fusion proteins. Aliquots were incubated with increasing concentrations (0.05-1 μM) of purified His-DAPLE-CT (1650-2028) wild-type or 1 μM His-DAPLE-CT F1675A in binding buffer supplemented with GDP (˜200 μl) for 5 h at 4° C. Glutathione-agarose beads were washed and bound proteins eluted by boiling in Laemmli sample buffer and separated by SDS-PAGE.

His-Gαi3 [6] = molecular target: T2, His-Gαi3 (Rattus norvegicus, UniProt P08753); test: GTPγS binding assay; assay type: biochemical; conditions: 0-2 μM, 15 min
T2 construct: His; made in house; host or cells: E. coli BL21 (DE3)
Protocol: GTPγS binding was measured using a filter binding method as described previously (Garcia-Marcos et al, 2010; Garcia-Marcos et al, 2011b). His-Gαi3 (100 nM) was preincubated with different concentrations of His-DAPLE-CT (aa 1650-2028) for 15 min at 30° C. in assay buffer [20 mM Na-HEPES, pH 8, 100 mM NaCl, 1 mM EDTA, 25 mM MgCl2, 1 mM DTT, 0.05% (w:v) C12E10]. Reactions were initiated at 30° C. by adding an equal volume of assay buffer containing 1 μM [^35S] GTPγS (˜50 c.p.m/fmol). Duplicate aliquots (25 μl) were removed at different time points, and binding of radioactive nucleotide was stopped by addition of 3 ml, ice-cold wash buffer (20 mM Tris-HCl, pH 8.0, 100 mM NaCl, 25 mM MgCl2). The quenched reactions were rapidly passed through BA-85 nitrocellulose filters (GE Healthcare) and washed with 4 ml wash buffer. Filters were dried and subjected to liquid scintillation counting. To determine the specific nucleotide binding, the background [^35S]GTPγS detected in the absence of G protein was subtracted from each reaction and data expressed as percentage of the [^35S] GTPγS bound by His-Gαi3 in the absence of His-DAPLE-CT.

His-Gαi3 [7] = molecular target: T2, His-Gαi3; test: Steady-state GTPase assay; assay type: biochemical; conditions: parallel reactions, WT replaced by F1675A
Protocol: Under the experimental conditions of steady-state GTPase assays, GTP hydrolysis occurs as a two-step reaction, i.e., 1) GDP is released from the G protein and exchanged for GTP, and 2) the GTP loaded is hydrolyzed. Nucleotide exchange is the rate limiting step in this process because it is ˜50-100 times slower than GTP hydrolysis by Gαi subunits (Mukhopadhyay & Ross, 2002). Thus, the steady-state GTPase activity reflects the rate of nucleotide exchange, and was performed as described previously (Garcia-Marcos et al, 2010; Garcia-Marcos et al, 2012; Garcia-Marcos et al, 2011b). Briefly, His-Gαi3 (100 nM) was preincubated with different concentrations of His-DAPLE-CT (aa 1650-2028) for 15 min at 30° C. in assay buffer [20 mM Na-HEPES, pH 8, 100 mM NaCl, 1 mM EDTA, 2 mM MgCl2, 1 mM DTT, 0.05% (w:v) C12E10]. GTPase reactions were initiated at 30° C. by adding an equal volume of assay buffer containing 1 μM [γ-^32P]GTP (˜50 c.p.m/fmol). […] Samples were then centrifuged for 10 min at 10,000×g, and 500 μl of the resultant supernatant were scintillation counted to quantify released [^32P]Pi. For the time course experiments, data was expressed as raw c.p.m. For the dose-dependence curve experiments, the background [^32P]Pi detected at 15 min in the absence of G protein was subtracted from each reaction and data expressed as percentage of the Pi produced by His-Gαi3 in the absence of His-DAPLE-CT.

GST-FZD7R-CT = molecular target: T3, GST-FZD7R-CT (Homo sapiens, UniProt O75084); test: GST-FZD7-CT pulldown of His-Gαi3; assay type: binding; conditions: His-Gαi3 preloaded with GDP, in the presence of DAPLE-CT
T3 construct: the GST-tagged cytoplasmic tail of FZD7R; made in house; host or cells: bacteria (E. coli BL21 (DE3)); plasmid a gift of R. Yao
Protocol: GST-FZD7-CT and GST-PBD constructs were immobilized on glutathione-Sepharose beads directly from bacterial lysates by overnight incubation at 4° C. with constant tumbling. Next morning, GST-FZD7-CT immobilized on glutathione beads were washed and subsequently incubated with His-tagged DAPLE-CT or Gαi3 proteins at 4° C. with constant tumbling. Washes and immunoblotting were performed as previously.

Molecule | reduction of number of colonies in soft-agar [1] | inhibition of anchorage-independent tumor growth (DLD1 cells [2]) | inhibition of anchorage-dependent tumor growth (DLD1 cells [3]) | eGFP signal (Wnt transcriptional activity) [4] | invasion of matrigel by spheroids (NIH3T3 cells) | adherent colonies per well (tumor growth) (DLD1 cells [3]; DLD1 cells stably expressing constructs, 2-3 weeks) | displacement of Gβγ from pre-assembled complex with GST-Gαi3 [5] | initial rate of nucleotide (GTPγS) binding by His-Gαi3 (His-Gαi3 [6]) | acceleration of steady-state GTPase activity diminished versus His-DAPLE-CT WT (His-Gαi3 [7]) | increase of Gαi3 binding to GST-FZD7R-CT (GST-FZD7R-CT)
DAPLE-FA: full length myc-DAPLE with F1675A mutation in the GBA motif, expressed in cells | failed to inhibit | enhanced oncogenicity | failed to inhibit | – | – | – | – | – | – | –
DAPLE-WT: myc-tagged full length human DAPLE (SEQ ID NO: 2) expressed in cells from pcDNA 3.1 | ~65% | ~50% | ~90% | showed inhibition of eGFP | increase of invasion tracks | can inhibit tumor growth | – | – | – | –
His-DAPLE-CT FA: His-DAPLE-CT with F1675A mutation, Gαi3 binding-deficient mutant (protein, left off: small tags and cut ends) GTAPPYVGVRPCSASPSSEMVTLEEALEESNRSSPTHDTPSCRDDLLSDYFRKASDPPAIGGQPGPPAKKEGAKMPTNFVAPTVKMAAPTSEGRPLKPGQYVKPNFRLTEAEAPPSVAPRQAQPPQSLSLGRPRQAPVPPASHAPASRSASLSRAFSLASADLLRASGPEACKQESPQKLGAPEALGGRETGSHTLQSPAPPSSHSLARERTPLVGKAGSSCQGPGPRSRPLDTRRFSLAPPKEERLAPLHQSATAPAIATAGAGAAAAGSGSNSQLLHFSPAAAPAARTKPKAPPRSGEVATITPVRAGLSLSEGDGVPGQGCSEGLPAKSPGRSPDLAPHLGRALEDCSRGSVSKSSPASPEPGGDPQTVWYEYGCV | – | – | – | – | – | – | not | not significantly affected | > 90% | not
